# pEC50, pIC50: −log10 of the molar value. Where two headings read alike, the source gives them in different places.
# What was measured:
# [1] = Clinical study, Second Study (7 days, 7AC4); conditions: for % 7AC4 suppression at nadir: human subjects
# [2] = Clinical study, First Study (healthy volunteers, 14 days); type: in vivo; conditions: healthy human volunteers, oral daily 5, 75, 200 or 400 mg
# dog hepatocytes = assay: In vitro metabolic stability in cryopreserved hepatocytes (dog); type: in vitro ADME; conditions: beagle dog hepatocytes; well-stirred liver model
# Experimental: (§1) In vitro half-life values were determined and scaled to predict hepatic clearance (CLpred) and hepatic extraction using the well-stirred liver model with no correction for plasma protein as described in Obach et al., The Prediction of Human Pharmacokinetic Parameters from Preclinical and In Vitro Metabolism Data, J. of Pharmacology and Experimental Therapeutics, vol. 283, no. 1, pp. 46-58 (1997).
# human hepatocytes = assay: In vitro metabolic stability in cryopreserved hepatocytes (human); type: in vitro ADME; conditions: well-stirred liver model
# Experimental: as §1
# [3] = Pharmacokinetics assay, dog (IV and oral); type: in vivo, beagle dogs; conditions: beagle dog
# Source text: (§2) Results are shown in FIG. 1A (IV administration) and FIG. 1B (oral administration), and in Table 2. […] Smaller Vdss in monkeys is correlated with higher plasma protein binding.
# [4] = Metabolism and excretion of radiolabeled (14C) compound; type: in vivo; conditions: SD rats, oral 5 mg/kg or IV 2 mg/kg
# Experimental: Blood, bile, feces, and urine samples were collected from each rat for up to 168 hours.
# [5] = rat, in vivo, iv, 2 mg/kg
# Source text: Blood, liver, kidney, and lung tissue samples were collected from the rats to determine a tissue/plasma ratio.
# [6] = PK/PD profile, 7 consecutive daily oral doses; type: in vivo; conditions: cynomolgus monkeys, oral 1 mg/kg, 7 consecutive days
# [7] = Tissue distribution of radiolabeled (14C) compound after oral dose; type: in vivo; conditions: Long-Evans rats, oral 5 mg/kg (100 μCi/kg), up to 168 hours
# Experimental: Plasma, liver, small intestine, cecum, kidney, lung, heart and skin tissue samples were collected up to 168 hours, and the amount of radioactive material at various time points was measured.
# mouse model of NASH = assay: Mouse model of NASH (high fat diet + CCl4), Compound 1
# Experimental: Hematoxylin & Eosin (H&E) and Sirius Red histological staining of liver tissue was used to quantitate NAFLD activity score (NAS), steatosis, ballooning, inflammation and fibrosis. […] Gene expression of RNA was analyzed by RT-qPCR and RNAseq.
# NAS is calculated based upon liver steatosis, inflammation, and ballooning and was determined by analysis of liver tissue histology using H&E stain. […] Hepatocellular ballooning is a form of liver cell injury associated with cell swelling and is also measured by H&E stained liver sections. The ballooning score is calculated as follows: 0-no hepatocyte ballooning; 1-few ballooning hepatocytes; 2-many hepatocytes with prominent ballooning.
# Liver fibrosis was quantified by histological analysis of the percentage of Sirius Red-positive liver sections. […] Liver triglycerides were measured from liver tissue using a biochemical analyzer (Hitachi-700).
# [8] = Pharmacokinetics assay, rat (IV and oral); type: in vivo, Sprague-Dawley (SD) rats; conditions: Sprague-Dawley rat, oral 10 mg/kg vs IV 1 mg/kg
# Source text: as §2
# mouse hepatocytes = assay: In vitro metabolic stability in cryopreserved hepatocytes (mouse); type: in vitro ADME; conditions: well-stirred liver model
# Experimental: as §1
# [9] = test system: FXR-regulated gene expression in liver and ileum; assay: Mechanism of action: tissue RNA by RT-qPCR and RNAseq after a single oral dose; conditions: C57BL/6 mice, 6 hours; for number of differentially expressed NASH-related genes modulated vs vehicle (liver RNAseq): fold change≥1.5
# Experimental: The RNA was analyzed by RT-qPCR and RNAseq.
# For RNAseq analysis, mRNA was extracted from total liver and sequenced using standard Illumina library preparation and sequencing protocols. Differentially expressed genes (DEG) were determined using RSEM and edgeR software packages and analyzed using Advaita Bio's iPathwayGuide software.
# monkey hepatocytes = assay: In vitro metabolic stability in cryopreserved hepatocytes (monkey); type: in vitro ADME; conditions: cynomolgus monkey hepatocytes; well-stirred liver model
# Experimental: as §1
# rat hepatocytes = assay: In vitro metabolic stability in cryopreserved hepatocytes (rat); type: in vitro ADME; conditions: Sprague-Dawley rat hepatocytes; well-stirred liver model
# Experimental: as §1
# THRα = molecular target: T1, THRα (Homo sapiens, UniProt P10827); assay: Binding activity to THRα; conditions: read-out: IC50 THRα binding force
# T1 sequence (P10827 1-410 isoform P10827-2): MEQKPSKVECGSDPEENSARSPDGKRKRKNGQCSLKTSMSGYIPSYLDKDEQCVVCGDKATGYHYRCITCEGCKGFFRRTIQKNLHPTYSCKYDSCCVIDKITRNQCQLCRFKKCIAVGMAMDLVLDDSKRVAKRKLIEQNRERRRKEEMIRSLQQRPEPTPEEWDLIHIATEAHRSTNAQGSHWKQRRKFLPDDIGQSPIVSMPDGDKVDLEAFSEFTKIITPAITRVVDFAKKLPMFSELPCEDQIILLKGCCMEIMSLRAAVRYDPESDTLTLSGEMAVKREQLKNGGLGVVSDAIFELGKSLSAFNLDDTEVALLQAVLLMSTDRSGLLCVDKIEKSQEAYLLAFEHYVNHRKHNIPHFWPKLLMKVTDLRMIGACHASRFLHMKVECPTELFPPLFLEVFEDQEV
# THRβ = molecular target: T2, THRβ (Homo sapiens, UniProt P10828); assay: Binding activity to the thyroxine receptor beta; conditions: ratio of binding IC50
# T2 sequence (P10828 1-461): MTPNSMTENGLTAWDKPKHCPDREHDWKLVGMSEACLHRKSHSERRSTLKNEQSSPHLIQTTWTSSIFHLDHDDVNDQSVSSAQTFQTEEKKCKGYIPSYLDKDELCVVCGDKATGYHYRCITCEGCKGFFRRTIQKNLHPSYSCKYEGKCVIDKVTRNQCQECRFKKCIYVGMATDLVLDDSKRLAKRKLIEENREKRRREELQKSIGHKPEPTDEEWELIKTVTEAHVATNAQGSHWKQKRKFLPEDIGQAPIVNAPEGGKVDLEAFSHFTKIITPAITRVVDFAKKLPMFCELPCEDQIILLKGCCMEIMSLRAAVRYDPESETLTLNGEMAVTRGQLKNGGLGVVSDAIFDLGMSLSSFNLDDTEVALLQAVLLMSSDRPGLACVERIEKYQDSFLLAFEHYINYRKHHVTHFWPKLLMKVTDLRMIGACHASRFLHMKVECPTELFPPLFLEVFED
# [10] = Pharmacokinetic evaluation in rats, intragastric infusion; type: in vivo; conditions: SD rats, intragastric 2 mg/kg
# Experimental: Drug Preparation: a certain amount of the drug was taken and added into a 2% Klucel LF+0.1% Tween 80 aqueous solution, to prepare a clear solution or a uniform suspension.
# Dosage: SD rats were fasted overnight and given the drug by intragastric infusion at an administrated dose of 2 mg/kg and an administrated volume of 10 mL/kg each.
# Operation: rats were dosed by intragastric infusion with the compounds. […] The heparinized sample tubes were then stored at −20° C., and the rats were allowed to eat food 2 h after the dosage.
# Determination of contents of the compounds to be tested in the plasma of rats after intragastric infusion of the drugs at different concentrations: the plasma samples were thawed at room temperature, 50 μL each was taken and added into 130 μL of an internal standard working solution (1000 ng/mL, acetonitrile, tolbutamide), and the mixture was whirled for about 1 min and then centrifugated at 4° C. and 13000 rpm for 10 min. 50 μL of the supernatant was taken and mixed with 100 μL of 50% acetonitrile water, and then introduced for LC/MS/MS analysis.
# [11] = test system: FXR-regulated gene expression (SHP, BSEP, FGF-19) in human HuH7 hepatoma cells; assay: Cell-based RNA assay of FXR-regulated gene expression; conditions: Huh-7, 11 h at 37° C., RT-qPCR
# Experimental: […]. See Kawamata et al JBC 278 (11)[…] (2003). […]. After 30 min at RT, cAMP was measured using an HTRF readout. EC50 values for FXR-regulated gene expression were determined using a cell-based RNA assay. […] After 11 h at 37° C., RNA was isolated and analyzed by RT-qPCR using primers to FXR-related genes: small heterodimer partner (SHP), bile salt export pump (BSEP) and fibroblast growth factor 19 (FGF-19).
# [12] = other FXR agonists; cited from earlier work
# [13] = 10, 30, 100 mg/kg oral daily, 28 days
# [14] = 10, 30, 100 mg/kg oral daily, 28 days, H&E
# [15] = 10, 30, or 100 mg/kg oral daily, 28 days
# [16] = single oral dose, Compound 1 10 mg/kg, OCA 30 mg/kg
smiles,measurement,setting,value
Cn1cc(C(=O)O)c2ccc(N3CCC(OCc4c(-c5c(Cl)cccc5Cl)noc4C4CC4)CC3)cc21 [Compound 1],Pruritus,[1]; 25 mg daily for 7 days,No
same,Pruritus,[1]; 75 mg daily for 7 days,No
same,Pruritus,[1]; 150 mg daily for 7 days,No
same,% 7AC4 suppression at nadir,[1]; oral 25 mg daily for 7 days,75%
same,% 7AC4 suppression at nadir,[1]; oral 75 mg daily for 7 days,82%
same,% 7AC4 suppression at nadir,[1]; oral 150 mg daily for 7 days,93%
same,Pruritus,[1]; subjects taking the highest doses of Compound 1,no pruritus was observed
same,incidences of pruritus,[2],no incidences of pruritus
same,Hepatic Extraction,dog hepatocytes,71.0 ± 2.49%
same,In vitro Metabolic CLpred,dog hepatocytes,22 ± 0.83 mL/min/kg
same,Hepatic Extraction,human hepatocytes,67.0 ± 1.73%
same,In vitro Metabolic CLpred,human hepatocytes,13.8 ± 3.67 mL/min/kg
same,CL,[3]; IV 1 mg/kg,9 mL/min/kg
same,Oral Bioavailability,[3]; oral 3 mg/kg vs IV 1 mg/kg,82%
same,major elimination pathway,[4],biliary excretion
same,metabolite formed,[4],acyl glucuronide metabolite
same,change in distribution to the liver on co-administration of rifampin,[5],does not result in a significant change
same,pharmacodynamics biomarker 7AC4 after repeated oral dosing,[6],sustained suppression
same,tissues with the most radioactive material,[7],"Liver, small intestine, and cecum had the most radioactive material"
same,BSEP liver expression (CPM) Relative to Vehicle,"mouse model of NASH; 30 mg/kg, NASH mice",5.1
same,CYP7A1 liver expression (CPM) Relative to Vehicle,"mouse model of NASH; 30 mg/kg, NASH mice",0.02
same,CYP8B1 liver expression (CPM) Relative to Vehicle,"mouse model of NASH; 30 mg/kg, NASH mice",0.007
same,OST-B liver expression (CPM) Relative to Vehicle,"mouse model of NASH; 30 mg/kg, NASH mice",135.7
same,SHP liver expression (CPM) Relative to Vehicle,"mouse model of NASH; 30 mg/kg, NASH mice",4.6
same,liver triglyceride levels,mouse model of NASH; 100 mg/kg,statistically significant reduced
same,serum triglyceride concentration,mouse model of NASH; 100 mg/kg,statically significant reduction
same,serum ALT level,mouse model of NASH; [13],reduced
same,serum AST level,mouse model of NASH; [13],reduced
same,ballooning vs untreated NASH mice,mouse model of NASH; [14],significantly reduced
same,inflammation vs untreated NASH mice,mouse model of NASH; [14],significantly reduced
same,steatosis vs untreated NASH mice,mouse model of NASH; [14],significantly reduced
same,serum total cholesterol level,"mouse model of NASH; 10, 30, and 100 mg/kg",statistically significant reduction
same,"collagen, type 1, alpha 1 expression in the liver vs control NASH mice","mouse model of NASH; 10, 30, or 100 mg/kg",decreased
same,NAFLD Activity Score (NAS) vs untreated NASH mice,mouse model of NASH; [15],significantly lower
same,liver fibrosis (Sirius Red) vs untreated NASH control,mouse model of NASH; [15],statistically significant reduced fibrosis
same,expression of inflammatory and fibrosis related genes,mouse model of NASH; mouse model of NASH,reduced
same,Oral Bioavailability,[8],21%
same,Hepatic Extraction,mouse hepatocytes,80.7 ± 1.02%
same,In vitro Metabolic CLpred,mouse hepatocytes,72.7 ± 1 mL/min/kg
same,"induction of FXR-specific genes, liver vs ileum (RT-qPCR)",[9]; single oral 10 mg/kg,preferentially induces FXR-specific genes in the liver
same,number of differentially expressed NASH-related genes modulated vs vehicle (liver RNAseq),[9]; [16],500
same,Hepatic Extraction,monkey hepatocytes,64.4 ± 0.28%
same,In vitro Metabolic CLpred,monkey hepatocytes,28 ± 0.17 mL/min/kg
same,Hepatic Extraction,rat hepatocytes,47.3 ± 0.78%
same,In vitro Metabolic CLpred,rat hepatocytes,26.2 ± 0.5 mL/min/kg
N#Cc1nn(-c2cc(Cl)c(Oc3n[nH]c(=O)c4c3CCCC4)c(Cl)c2)c(=O)[nH]c1=O [Compound 3],pIC50,THRα,< 5.00
same,THRα/β selectivity (factor),THRβ,> 8.1
CC1(C)CCc2c(Oc3c(Cl)cc(-n4cc(C#N)c(=O)[nH]c4=O)cc3Cl)n[nH]c(=O)c21 [Compound 6],Curve area,[10],9242 ± 1245 ng·h/mL
same,Time to peak,[10],5.33 ± 1.15 h
N#Cc1nn(-c2cc(Cl)c(Oc3n[nH]c(=O)c4c(Cl)cccc34)c(Cl)c2)c(=O)[nH]c1=O [Compound 7],pIC50,THRα,< 5.00
same,THRα/β selectivity (factor),THRβ,>6.80
"CC[C@H]1[C@@H](O)[C@@H]2[C@H](CC[C@]3(C)[C@@H]([C@H](C)CCC(=O)O)CC[C@@H]23)[C@@]2(C)CC[C@@H](O)C[C@@H]12 [OCA, obeticholic acid]",pEC50,[11]; read-out: BSEP Gene induction/HuH7 EC50,6.70
same,pEC50,[11]; read-out: FGF-19 Gene Induction/HuH7 EC50,6.89
same,pEC50,[11]; read-out: SHP Gene induction/HuH7 EC50,6.70
same,number of global pathways enriched (liver RNAseq),[9]; [16],6
same,number of differentially expressed NASH-related genes modulated vs vehicle (liver RNAseq),[9]; [16],44
same,pruritus in longer term studies,[12],known to result in pruritus
"CC(C)c1cc(Oc2c(Cl)cc(-n3nc(C#N)c(=O)[nH]c3=O)cc2Cl)n[nH]c1=O [Reference compound, 2-[3,5-Dichloro-4-(5-isopropyl-6-oxo-1,6-dihydropyridazin-3-yloxy)phenyl]-3,5-dioxo-2,3,4,5-tetrahydro[1,2,4]triazine-6-carbonitrile, reference compound]",Curve area,[10],12854 ± 961 ng·h/mL
same,Peak blood drug concentration,[10],1163 ± 97.1 ng/mL
same,Time to peak,[10],5.3 ± 1.15 h
O=C(O)c1ccnc(N2CC(O)(c3ccc(OCc4c(-c5c(Cl)cccc5Cl)noc4C4CC4)cc3Cl)C2)c1 [cilofexor],pruritus in longer term studies,[12],known to result in pruritus
O=C(O)c1cc(F)c2nc(N3[C@@H]4CC[C@H]3C[C@@H](OCc3c(-c5ccccc5OC(F)(F)F)noc3C3CC3)C4)sc2c1 [tropifexor],pruritus in longer term studies,[12],known to result in pruritus
